Earlier results as cited in patent US20040216174A1, “Screening assays for targets and drugs useful in treatment and prevention of lipid metabolism disorders” (priority 2003, published 2004).

Tested on: C. elegans
Conditions: treatment with antioxidant

With vitamin E as the substance, how does the “effect on germline development” value read?
The value was “slows down germline development”.
